Source: publication PMC9623576, “Semisynthesis and Evaluation of Anti-Inflammatory Activity of the Cassane-Type Diterpenoid Taepeenin F and of Some Synthetic Intermediates” (Journal of Natural Products, 2022)

Legend:
Type in all cases: cell-based
[1] = system: LPS-stimulated RAW 264.7 macrophage murine cells; experiment: RAW 264.7 cell-cycle distribution, PI flow cytometry; conditions: for effect on cell-cycle arrest induced by LPS: 72 h of treatment
Description: Since the anti-inflammatory effect can be related to the ability to change the inflammatory processes induced by LPS in RAW 264.7 cells, including monocyte/macrophage cell differentiation and cell-cycle arrest,[22] we analyzed the cell-cycle distribution in these cells in response to LPS and compounds 16 and 21. The two compounds with the highest antiproliferative and important NO inhibitory effects were selected for this assay. For this purpose, flow cytometry by propidium iodide (PI) staining was used to measure DNA ploidy as well as the distribution of cells in every phase of the cell cycle (Figure S2).
A stock solution was frozen and stored at […]. Before the experiments, this solution was diluted in cell-culture medium to the adequate concentrations for each experiment. For the antiproliferative assay in all cell lines, we determined the concentrations of compounds required for 20, 50, and 80% of inhibition cell growth, IC20, IC50, and IC80, concentrations, respectively, to analyze the complete range of cytotoxicity and to determine the graduated or acute response to these compounds. For nitrite assay, subcytotoxic concentrations (3/4IC50, 1/2IC50, and 1/4IC50), were used to ensure that the NO inhibitory potential was not due to a possible cytotoxic effect. The concentrations of 3/4IC50, 1/2IC50, and 1/4IC50 were used for the cell-cycle analysis. All experiments were measured and compared with control (untreated cells after 24, 48, or 72 h of treatment.)
Cellular subpopulations, with different DNA contents, were visualized, using a fluorescence-activated cell sorter (FACS) at 488 nm in an Epics XL flow cytometer (Coulter Corporation, Hialeah, FL, USA). Changes in DNA levels are characteristic of cell-cycle arrest and cell differentiation.[36] […] Several controls were analyzed in parallel. […] Data were analyzed to determine the percentage of cells in each cell-cycle phase (G0/G1, S, and G2/M).

[2] = system: HepG2 human hepatocarcinoma cells; experiment: MTT cancer cell proliferation assay, HepG2; conditions: Homo sapiens, HepG2, 72 h, MTT; for IC50: read-out: IC50; for IC20: read-out: IC20
Procedure: (§1) The five newly synthesized diterpenoids were evaluated for their cytotoxic effects against three selected tumor cell lines, B16-F10 murine melanoma cells, HT29 human colon adenocarcinoma cells, and HepG2 human hepatocarcinoma cells at increasing concentrations (0–100 μg/mL). After 72 h of treatment, cell viability was determined by an MTT assay, where the tetrazolium dye was transformed into formazan in the mitochondria of viable cells, its absorbance measured at 570 nm and expressed as a percentage with respect to untreated control cells (S3 Figure.). The concentrations required for 20, 50, and for 80% growth inhibition (IC20, IC50, and IC80) were also determined for each compound (Table 2).
(§2) A stock solution was frozen and stored at […]. Before the experiments, this solution was diluted in cell-culture medium to the adequate concentrations for each experiment. […] For nitrite assay, subcytotoxic concentrations (3/4IC50, 1/2IC50, and 1/4IC50), were used to ensure that the NO inhibitory potential was not due to a possible cytotoxic effect. The concentrations of 3/4IC50, 1/2IC50, and 1/4IC50 were used for the cell-cycle analysis. All experiments were measured and compared with control (untreated cells after 24, 48, or 72 h of treatment.)
(§3) Human colorectal adenocarcinoma cell line HT29 (ECACC no. 9172201; ATCC no. HTB-38), human hepatocarcinome cell line HepG2 (ECACC no. 85011430), mouse melanoma cells B16-F10 (ATCC no. CRL-6475), and murine monocyte/macrophage-like RAW 264.7 cell line (ATCC no, TIB-71) were cultured in DMEM (Dulbecco’s modified Eagle’s medium) supplemented with 2 mM glutamine, 10% heat-inactivated FCS (fetal calf serum), 10 000 units/mL of penicillin and 10 mg/mL of streptomycin, (for all cancer cell lines), 50 μg/mL of gentamicin (only for RAW 264.7 cell line), and incubated at 37 °C, in an atmosphere of 5% CO2 and 95% humidity. The culture media were changed every 48 h, and the confluent cultures were separated with a trypsin solution (0.25% EDTA). In all experiments, monolayer cells were grown to 80–90% confluence, in sterile cell culture flasks. All cell lines used were purchased from the cell bank of the University of Granada, Spain.
(§4) The cytotoxicity assay was performed by the MTT (3-(4,5-dimethylthiazol-2-yl)-2,5-diphenyltetrazolium bromide) method.[21] To quantify the cytotoxicity of compounds, the fresh and suspended cells were seeded in 96-well plates to a volume of 100 μL at 6.0 × 10^3 cells/mL for HT29 and RAW 264.7 cell lines, at 5.0 × 10^3 cells/mL for B16-F10 cells and 15.0 × 10^3 for Hep G2. Then, cells were incubated to adhere over 24 h at 37 °C with 5% CO2. All tested compounds were prepared in fresh growth medium. After 24 h, an additional 100 μL of medium with the corresponding concentrations of products (only medium in the control wells) was added to the corresponding wells, at various final concentrations (0–100 μg/mL). Finally, after 72 h of incubation at 37 °C with 5% CO2, the medium with the compounds were removed and 100 μL of MTT solution (0.5 mg/mL) in 50% of PBS 50% of medium was added to each well. After 1.5 h of incubation, formazan was resuspended in 100 μL of DMSO, and each concentration was tested in triplicate. Relative cell viability, with respect to untreated control cells, was measured by absorbance at 570 nm on an ELISA plate reader (Tecan Sunrise MR20-301, TECAN, Austria).
(§5) Cytotoxicity experimental data were fitted to a sigmoidal function (y = ymax/(x/a)^−b) by nonlinear regression. […] These analyses were performed using SigmaPlot 12.5 software. Similar analyses were performed to obtain the IC50 of NO production. All data shown here are representative of at least two independent experiments performed in triplicate. All quantitative data were summarized as the mean ± standard deviation (SD).

[3] = system: HT29 human colon adenocarcinoma cells; experiment: MTT cancer cell proliferation assay, HT29; conditions: Homo sapiens, HT29, 72 h, MTT; for IC50: HT-29, 72 h, read-out: IC50; for IC80 / IC20: HT-29; for IC20: read-out: IC20
Procedure: as §1, §2, §3, §4, §5

SMILES | effect on cell-cycle arrest induced by LPS [1] | proportion of cells in the S phase ([1]; LPS + compound, 72 h, 1/4IC50 to 3/4IC50, with respect to positive control) [%] | IC50 [2] [µM] | IC20 [2] [µM] | IC50 [3] [µM] | IC80 [3] [µM] | IC20 [3] [µM] | IC80 [2] [µM]
COC(=O)[C@]1(C)CCC[C@@]2(C)[C@H]1CC=C1C(C)=C(C(C)C)C(=O)C[C@@H]12 [Compound 16, (1R,4aR,10aR)-Methyl 7-isopropyl-1,4a,8-trimethyl-6-oxo-1,2,3,4,4a,4b,5,6,10,10a-decahydrophenanthrene-1-carboxylate] | could revert the cell-cycle arrest induced by LPS | 69 | 18.5 ± 4.73 | 5.05 ± 2.74 | 33.4 ± 2.16 | 55 ± 0.93 | 21.4 ± 3.09 | –
COC(=O)[C@]1(C)CCC[C@]2(C)c3cc(O)c(C=O)c(C)c3CC[C@@H]12 [Compound 21, (1R,4aS,10aR)-Methyl 7-formyl-6-hydroxy-1,4a,8-trimethyl-1,2,3,4,4a,9,10,10a-octahydrophenanthrene-1-carboxylate] | could revert the cell-cycle arrest induced by LPS | – | 37.9 ± 5.4 | 33.2 ± 8.64 | 20.1 ± 0.61 | 30.6 ± 0.81 | 13.5 ± 0.55 | 45.3 ± 0.9
